{
  "source": "patent US20260053794A1",
  "about": "“SOMATOSTATIN RECEPTOR 2 AGONISTS AND USES THEREOF” (Exelixis, Inc., priority 2022, published 2026)",
  "data": [
    {"target": "T1, Somatostatin Receptor 2 (SSTR2) (Homo sapiens, UniProt P30874)", "T1 construct": "expressed in transfected cells", "T1 sequence (P30874 whole entry, species assumed)": "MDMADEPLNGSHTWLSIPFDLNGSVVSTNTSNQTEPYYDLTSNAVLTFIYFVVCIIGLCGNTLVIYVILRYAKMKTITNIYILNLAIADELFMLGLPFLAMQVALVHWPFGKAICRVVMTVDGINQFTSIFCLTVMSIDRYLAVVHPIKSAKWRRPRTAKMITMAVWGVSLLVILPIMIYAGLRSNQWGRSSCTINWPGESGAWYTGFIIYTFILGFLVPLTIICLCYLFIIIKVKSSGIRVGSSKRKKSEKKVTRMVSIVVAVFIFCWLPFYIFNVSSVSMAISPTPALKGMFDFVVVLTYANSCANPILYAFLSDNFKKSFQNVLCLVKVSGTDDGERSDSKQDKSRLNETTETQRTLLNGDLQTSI", "test": "Biochemical Assay for Activation of Somatostatin Receptor 2 (SSTR2), Cisbio HTRF cAMP assay", "type": "cell-based", "conditions": "average pEC50; HTRF cAMP assay in stably-transfected cell line expressing SSTR2; cells incubated with compounds for 1-2h", "description": "Biochemical Assay for Activation of Somatostatin Receptor 2 (SSTR2)\nAgonistic activation of SSTRs leads to an […] production of intracellular cAMP levels. Cisbio's homogeneous time-resolved fluorescence (HTRF) cAMP assay was used to measure cAMP concentration in an high-throughput format. Increase in intracellular cAMP concentrations was measuring using a stably-transfected cell line expressing SSTR2. Test compounds were dissolved in DMSO. Cells were incubated with compounds for 1-2h, and subsequently competitive binding of cAMP produced due to the activation of SSTR2 by the test compounds was measured using the Cisbio cAMP Gs dynamic assay system (Perkin Elmer, Bedford, MA).\nThe average pEC50 was determined for the test compounds.", "units": {"EC50": "nM"}, "values": [
      {"smiles": "CNCCCNc1c(C(=O)Nc2ccc(F)c(F)c2)cncc1-c1cc(F)cc(F)c1", "note": "[Compound 117]", "EC50": 2000},
      {"smiles": "CNCCCn1c(=O)n(-c2ccc(F)c(F)c2)c(=O)c2cncc(-c3cc(F)cc(F)c3)c21", "note": "[Compound 118]", "EC50": "> 10000"},
      {"smiles": "Cc1cc(F)cc(-c2cncc(N3Cc4ccccc4C3)c2N2CCC(N)CC2)c1", "note": "[Compound 119]", "EC50": 0.0501},
      {"smiles": "NC1CCN(c2c(-c3nc4cc(F)c(F)cc4[nH]3)cnc3ncc4ccc(F)cc4c23)CC1", "note": "[Compound 120]", "EC50": 6310},
      {"smiles": "NC1CCN(c2c(-c3nc4cc(F)c(F)cc4[nH]3)cnc3c2-c2cc(F)ccc2CO3)CC1", "note": "[Compound 121, 1-(2-(5,6-difluoro-1H-benzo[d]imidazol-2-yl)-9-fluoro-6H-isochromeno[3,4-b]pyridin-1-yl)piperidin-4-amine]", "EC50": 631},
      {"smiles": "N#Cc1cccc(-c2ccc3ncc(-c4cc(F)cc(F)c4)c(-c4ccc(N)cc4)c3c2)c1O", "note": "[Compound 122, 3-(4-(4-aminophenyl)-3-(3,5-difluorophenyl)quinolin-6-yl)-2-hydroxy benzonitrile]", "EC50": "> 10000"},
      {"smiles": "N#Cc1cccc(-c2ccc3ncc(-c4cc(F)cc(F)c4)c(-c4ccc(N)cn4)c3c2)c1O", "note": "[Compound 123]", "EC50": "> 10000"},
      {"smiles": "N#Cc1cccc(-c2ccc3ncc(-c4cc(F)cc(F)c4)c(C4=CCC(N)CC4)c3c2)c1O", "note": "(stereo not shown) [Compound 125]", "EC50": 5.01},
      {"smiles": "N#Cc1cccc(-c2cc3ncc(-c4cc(F)cc(F)c4)c(N4CCC(N)CC4)c3o2)c1O", "note": "[Compound 127, 3-(7-(4-aminopiperidin-1-yl)-6-(3,5-difluorophenyl)furo[3,2-b]pyridine-2-yl)-2-hydroxybenzonitrile]", "EC50": 251},
      {"smiles": "NC(=O)c1cc(F)cc(-c2cc3ncc(-c4cc(F)cc(F)c4)c(N4CCC(N)CC4)c3o2)c1", "note": "[Compound 128]", "EC50": 100},
      {"smiles": "COc1cc(F)cc(-c2cnc3cc(-c4ccc5[nH]c(=O)[nH]c5c4)oc3c2N2CCC(N)CC2)c1", "note": "[Compound 130]", "EC50": 100},
      {"smiles": "N#Cc1cccc(-c2cc3c(N4CCC(N)CC4)c(-c4cc(F)cc(F)c4)cnc3o2)c1O", "note": "[Compound 131]", "EC50": "> 10000"},
      {"smiles": "N#Cc1cccc(-c2cc3ncc(-c4cc(F)cc(F)c4)c(N4CCC(N)CC4)c3s2)c1O", "note": "[Compound 132]", "EC50": "> 10000"},
      {"smiles": "NC1CCN(c2c(-c3cc(F)cc(F)c3)cnc3cc(-c4cc(F)cc(F)c4)sc23)CC1", "note": "[Compound 133]", "EC50": 1580},
      {"smiles": "NC1CCN(c2c(-c3cc(F)cc(F)c3)cnc3sc(-c4cc(F)cc(F)c4)cc23)CC1", "note": "[Compound 134]", "EC50": 631},
      {"smiles": "Cc1cc(F)cc(-c2cnc3ccc(-c4cccc(C#N)c4O)cc3c2N2CCC(NC(=N)N)CC2)c1", "note": "[Compound 136]", "EC50": 20},
      {"smiles": "N#Cc1cccc(-c2ccc3ncc(-c4cc(F)cc(F)c4)c(N4CC5(CNC5)C4)c3c2)c1O", "note": "[Compound 137]", "EC50": "> 10000"},
      {"smiles": "COCOc1c(C#N)cccc1-c1ccc2ncc(-c3cc(F)cc(F)c3)c(N3CC4(CNC4)C3)c2c1", "note": "[Compound 138]", "EC50": 6310},
      {"smiles": "COCOc1c(C#N)cccc1-c1ccc2ncc(-c3cc(F)cc(F)c3)c(N3CC4(CN(C(C)=O)C4)C3)c2c1", "note": "[Compound 139]", "EC50": "> 5010"},
      {"smiles": "COCOc1c(C#N)cccc1-c1ccc2ncc(-c3cc(F)cc(F)c3)c(O[C@H]3CC[C@@H](NC(=O)OC(C)(C)C)C3)c2c1", "note": "[Compound 140]", "EC50": "> 10000"},
      {"smiles": "COCOc1c(C#N)cccc1-c1ccc2ncc(-c3cc(F)cc(F)c3)c(OC3CCCC(NC(=O)OC(C)(C)C)C3)c2c1", "note": "(stereo not shown) [Compound 141]", "EC50": "> 10000"},
      {"smiles": "C=CCOc1c(C#N)cccc1-c1ccc2ncc(-c3cc(F)cc(F)c3)c(N3CCC(N)CC3)c2c1", "note": "[Compound 142]", "EC50": 0.501},
      {"smiles": "COCOc1c(C#N)cccc1-c1ccc2ncc(-c3cc(F)cc(F)c3)c(-n3ccc([N+](=O)[O-])c3)c2c1", "note": "[Compound 143]", "EC50": "> 10000"},
      {"smiles": "N#Cc1cccc(-c2ccc3ncc(-c4cc(F)cc(F)c4)c(-n4ccc(CN)c4)c3c2)c1O", "note": "[Compound 144]", "EC50": 1260},
      {"smiles": "NC1CCN(c2c(-c3cc(F)cc(F)c3)cnc3ccc(-c4cc(F)cc(F)c4)cc23)CC1", "note": "[Compound 145]", "EC50": 0.0316},
      {"smiles": "N#Cc1cccc(-c2ccc3ncc(-c4cc(F)cc(F)c4)c(N4CCC(O)CC4)c3c2)c1NCCCN", "note": "[Compound 146]", "EC50": 398},
      {"smiles": "CCOC(=O)c1cc(-c2cc(F)cc(F)c2)cc2c(N3CCC(N)CC3)c(-c3cc(F)cc(F)c3)cnc12", "note": "[Compound 147]", "EC50": 0.0398},
      {"smiles": "CC(C)(C)OC(=O)NC1CCN(c2c(-c3cc(F)cc(F)c3)cnc3c(C(=O)O)cc(-c4cc(F)cc(F)c4)cc23)CC1", "note": "[Compound 148]", "EC50": "> 794"},
      {"smiles": "NC1CCN(c2c(-c3cc(F)cc(F)c3)cnc3c(C(=O)O)cc(-c4cc(F)cc(F)c4)cc23)CC1", "note": "[Compound 149]", "EC50": 0.398},
      {"smiles": "NC1CCN(c2c(-c3cc(F)cc(F)c3)cnc3ccc(C4=CC=CC5(O)C(=O)NCCN45)cc23)CC1", "note": "(stereo not shown) [Compound 151]", "EC50": 1.58},
      {"smiles": "NC1CCN(c2c(-c3cc(F)cc(F)c3)cnc3ccc(C4=CC=CC5(Cl)C(=O)NCCN45)cc23)CC1", "note": "(stereo not shown) [Compound 152]", "EC50": 7.94},
      {"smiles": "C=COc1c(C#N)cccc1-c1ccc2ncc(-c3cc(F)cc(F)c3)c(N3CC[C@H](N)[C@@H](O)C3)c2c1", "note": "[Compound 153]", "EC50": 3.16},
      {"smiles": "COc1c(C#N)cccc1-c1ccc2ncc(-c3cc(F)cc(F)c3)c(N3CCC(N)CC3)c2c1", "note": "[Compound 154]", "EC50": 0.316},
      {"smiles": "CC(N)CCN1CCc2c(-c3cc(F)cc(F)c3)ccc3ncc(-c4cc(F)cc(F)c4)c1c23", "note": "(stereo not shown) [Compound 155]", "EC50": 631},
      {"smiles": "CN1c2c(cnc3ccc(-c4cc(F)cc(F)c4)cc23)-c2cc(F)cc(F)c2C1CCN", "note": "(stereo not shown) [Compound 157]", "EC50": 10},
      {"smiles": "NC1CCN(c2c(-c3cc(F)cc(F)c3)cnc3ccc(C4=CC=CN5CCNC(=O)C45O)cc23)CC1", "note": "(stereo not shown) [Compound 158]", "EC50": 501},
      {"smiles": "NCc1cc(-c2cc(F)cc(F)c2)cc2c(N3CCC(N)CC3)c(-c3cc(F)cc(F)c3)cnc12", "note": "[Compound 159]", "EC50": 0.398},
      {"smiles": "NC1CCN(c2c(-c3cc(F)cc(F)c3)cnc3c(CO)cc(-c4cc(F)cc(F)c4)cc23)CC1", "note": "[Compound 160]", "EC50": 0.0251},
      {"smiles": "Cc1cc(F)cc(-c2c[n+]3c4ccc(cc4c2N2CCC(N)CC2)-c2ccccc2OCCCC3)c1", "note": "[Compound 161]", "EC50": 10},
      {"smiles": "Cc1cc(F)cc(-c2cnc3ccc(-c4ccccc4C4NCCCN4)cc3c2N2CCC(=O)CC2)c1", "note": "[Compound 162]", "EC50": 1000},
      {"smiles": "Cc1cc(F)cc(-c2cnc3ccc(-c4cccc(C#N)c4O)cc3c2N2CCC(=O)CC2)c1", "note": "[Compound 163]", "EC50": "> 10000"},
      {"smiles": "Cc1cc(F)cc(-c2cnc3ccc(-c4cccc(C#N)c4O)cc3c2N2CCC(O)CC2)c1", "note": "[Compound 164]", "EC50": "> 10000"},
      {"smiles": "Nc1nc(Cl)ccc1C(=O)Nc1cncc(-c2ccccc2)c1N1CCC(N)CC1", "note": "[Compound 165]", "EC50": 12.6}
    ]}
  ]
}
